Legend:
[1] = biological target: human BCL6 BTB domain (Trx-6×His-BCL6) / BCOR-AF633 peptide (Homo sapiens (Human), UniProt P41182); assay: HTRF assay; format: binding; details: 1 nM Trx-6×His-BCL6, 300 nM BCOR-AF633 peptide, 2 hours incubation
[2] = biological target: BCL6-NCOR2(SMRT) corepressor protein-protein interaction (Homo sapiens (Human), UniProt P41182); assay: NanoBRET cell assay; format: cell-based; details: read-out: NanoBRET cell avg pIC50 (converted)
From the text: At 20 hr post-transfection, cells were collected, washed with PBS, and exchanged into media containing phenol red-free OptiMEM+4% FBS (Life Technology).

[3] = biological target: endogenous BCL6 protein in SUDHL-4 cells (Homo sapiens (Human), UniProt P41182); assay: Immunofluorescence-based BCL6 degradation assay (SUDHL4); format: cell-based; details: 2 hours with compound, DC50 = concentration at which 50% of endogenous BCL6 protein is degraded
Description: DC50 values (compound concentration at which 50% of endogenous BCL6 protein is degraded) were determined in SUDHL-4 cells (American Type Culture Collection) in an immunofluorescence-based assay using an InCell2200 high content imaging system (GE Healthcare). Briefly, 40 μL of lymphoma suspension cells cultured in RPMI 1640-10% FBS (Sigma-Aldrich or PAN Biotech UK Ltd) were platted on fibronectin (Sigma catalogue F1141)-coated 384 well Cell Carrier Ultra plate (Perkin Elmer catalogue 6057300) at 1.2 104 cells/well. After 20 hours cell culture at 37° C./CO2 incubator, compounds were dispensed in the cell culture plate using ECHO550 acoustic dispenser (Labcyte, Inc.), as 8 point-concentration response (ranging from 5 nM to 10 μM) in 0.67% final DMSO concentration. Cells were incubated with compound for 2 hours at 37° C./CO2 incubator followed by fixation in 4.5% formaldehyde (37% formaldehyde solution, Sigma catalogue F8775) at room temperature for 15 min. After fixing, cells were washed in 1×TBS (Tris Buffer Saline) using a Power Washer 384 (Tecan Group Ltd). Blocking and cell permeabilisation were performed by incubating the fixed cells for 1 hour at room temperature in 1×TBS, 5% BSA, 1% Triton X100, followed by three washes on PW384 plate washer. Primary and secondary antibodies were prepared in 1×TBS, 1% BSA, 0.2% Triton X100. BCL6 expression was detected by incubating the cells for 1 h 30 with BCL6 rabbit polyclonal antibody (Sigma Catalogue HPA004899) at 1:250, 0.8 μg/ml, followed by 1 hour in chicken anti-Rabbit Alexa 488 conjugated antibody (Life Technology) at 1:500. After incubation in each antibody, cells were washes four times in 1×TBS-0.05% tween on PW384 plate washer. Cells were finally incubated for 60 min with nuclear staining RedDot2 dye (Biotium) at 0.5× the stock concentration in 1×TBS. BCL6 expression in the absence or presence of compound was detected on InCell2200 with 20× objective and quantified on InCell Analyser 3.7.2 workstation (GE Healthcare). The % response at each concentration was calculated by normalising BCL6 expression in the presence of compound to the appropriate high (DMSO) and low (DMSO with 7 μM of a control compound (5-((5-chloro-2-((3R,5S)-4,4-difluoro-3,5-dimethylpiperidin-1-yl)pyrimidin-4-yl)amino)-3-(3-hydroxy-3-methylbutyl)-1-methyl-1,3-dihydro-2H-benzo[d]imidazol-2-one)) controls.

Compound | HTRF avg pIC50 (1 nM) [1] | IC50 [2] | SUDHL4 avg pDC50 [3]
C[C@@H]1C[C@H](C)CN(c2ncc(Cl)c(Nc3ccc4c(c3)c3c(c(=O)n4C)OCC[C@H](C)N3)n2)C1 [Example 5e, (S)-10-((5-chloro-2-((3R,5S)-3,5-dimethylpiperidin-1-yl)pyrimidin-4-yl)amino)-2,7-dimethyl-1,2,3,4-tetrahydro-[1,4]oxazepino[2,3-c]quinolin-6(7H)-one] | 6.18 | 5.25 µM | 6.22
(R)-10-((5-chloro-2-((3R,5S)-3-hydroxy-5- methylpiperidin-1-yl)pyrimidin-4-yl)amino)-2-cyclopropyl-7- methyl-1,2,3,4-tetrahydro-[1,4]oxazepino[2,3-c]quinolin-6(7H)-one or (R)-10-((5-chloro-2-((3S,5R)-3-hydroxy-5-methylpiperidin-1- yl)pyrimidin-4-yl)amino)-2-cyclopropyl-7-methyl-1,2,3,4-tetrahydro- [1,4]oxazepino[2,3-c]quinolin-6(7H)-one: formic acid (1:2) [Example 12c] | 8.01 | – | 7.83
C[C@@H]1CN(c2ncc(Cl)c(Nc3ccc4c(c3)c3c(c(=O)n4C)OCC[C@H](C4CC4)N3)n2)C[C@H](C)C1(F)F [Example 5i, (R)-10-((5-chloro-2-((3S,5R)-4,4-difluoro-3,5-dimethylpiperidin-1-yl)pyrimidin-4-yl)amino)-2-cyclopropyl-7-methyl-1,2,3,4-tetrahydro-[1,4]oxazepino[2,3-c]quinolin-6(7H)-one] | 6.70 | – | 6.79
C[C@@H]1CN(c2ncc(Cl)c(Nc3ccc4c(c3)c3c(c(=O)n4C)OCC[C@H](C)N3)n2)C[C@H](C)C1(F)F [Example 5f, (S)-10-((5-chloro-2-((3S,5R)-4,4-difluoro-3,5-dimethylpiperidin-1-yl)pyrimidin-4-yl)amino)-2,7-dimethyl-1,2,3,4-tetrahydro-[1,4]oxazepino[2,3-c]quinolin-6(7H)-one] | 6.07 | 6.17 µM | 6.63

More lines, now with the values ahead:

HTRF avg pIC50 (1 nM) [1] | IC50 [2] | SUDHL4 avg pDC50 [3] | Compound
6.55 | 13.5 µM | 6.50 | C[C@@H]1C[C@H](C)CN(c2ncc(Cl)c(Nc3ccc4c(c3)c3c(c(=O)n4C)C(=O)OC[C@H](C)N3)n2)C1 [Example 8g, (S)-10-((5-chloro-2-((3R,5S)-3,5-dimethylpiperidin-1-yl)pyrimidin-4-yl)amino)-2,7-dimethyl-2,3-dihydro-[1,4]oxazepino[6,5-c]quinoline-5,6(1H,7H)-dione]
6.61 | – | 6.54 | C[C@@H]1CN(c2ncc(Cl)c(Nc3cnc4c(c3)c3c(c(=O)n4C)OCC[C@H](C4CC4)N3)n2)C[C@H](C)C1(F)F [Example 5t, (R)-10-((5-chloro-2-((3S,5R)-4,4-difluoro-3,5-dimethylpiperidin-1-yl)pyrimidin-4-yl)amino)-2-cyclopropyl-7-methyl-1,2,3,4-tetrahydro-[1,4]oxazepino[2,3-c][1,8]naphthyridin-6(7H)-one]
6.24 | – | 6.87 | C[C@@H]1CN(c2ncc(Cl)c(Nc3ccc4[nH]c(=O)c5c(c4c3)N[C@@H](C3CC3)CCO5)n2)C[C@H](C)C1(F)F [Example 5p, (R)-10-((5-chloro-2-((3S,5R)-4,4-difluoro-3,5-dimethylpiperidin-1-yl)pyrimidin-4-yl)amino)-2-cyclopropyl-1,2,3,4-tetrahydro-[1,4]oxazepino[2,3-c]quinolin-6(7H)-one]
6.80 | 17.8 µM | 6.78 | C[C@@H]1CN(c2ncc(Cl)c(Nc3ccc4c(c3)c3c(c(=O)n4C)C(=O)OC[C@H](C)N3)n2)C[C@H](C)C1(F)F [Example 8c, (S)-10-((5-chloro-2-((3S,5R)-4,4-difluoro-3,5-dimethylpiperidin-1-yl)pyrimidin-4-yl)amino)-2,7-dimethyl-2,3-dihydro-[1,4]oxazepino[6,5-c]quinoline-5,6(1H,7H)-dione]
6.93 | – | 6.84 | Cn1c(=O)c2c(c3cc(Nc4nc(N5CCC(F)(F)CC5)ncc4Cl)ccc31)N[C@@H](C1CC1)CCO2 [Example 5m, (R)-10-((5-chloro-2-(4,4-difluoropiperidin-1-yl)pyrimidin-4-yl)amino)-2-cyclopropyl-7-methyl-1,2,3,4-tetrahydro-[1,4]oxazepino[2,3-c]quinolin-6(7H)-one]

From patent US20230287003A1, “BCL6 INHIBITORS” (Cancer Research Technology Limited, priority 2018, published 2023)
